Test results from publication PMC5238392, “Origin of anti-tumor activity of the cysteine-containing GO peptides and further optimization of their cytotoxic properties” (Scientific Reports, 2017).

Experiments:
ZR-75-1 cells = assay: FITC Annexin V / propidium iodide apoptosis assay, ZR-75-1; type: cell-based, human
Experimental: Figure 3 GO-203-induced apoptosis in HT-1080 and ZR-75-1 cells as assessed by FITC Annexin V (AnV) and propidium iodide (PI) double staining. (A–D) Flow cytometry histograms for the cells incubated for 4 h with 10 μM of GO-203 and the untreated (control) cells. (E–H) Apoptotic fractions in the GO-203-treated and untreated (control) cells as a function of incubation time and GO-203 concentration; color coding is explained in the legend. TEXT PRINTED IN THE PICTURE: (B) GO-203: HT-1080: IV.(1.90 %); HT-1080: III.(52.62 %); HT-1080: I.(19.45 %); HT-1080: II.(26.04 %) | (D) GO-203: ZR-75-1: IV.(8.19 %); ZR-75-1: III.(8.65 %); ZR-75-1: I.(37.84 %); ZR-75-1: II.(45.32 %)
Similarly fast apoptotic process is observed in ZR-75-1, although this cell line is less susceptible to the cytotoxic effect of GO-203. 4 h after administration of 10 μM dose, 39% of the cells remain healthy, 43% undergo early apoptosis, and 9% are in the late apoptosis stage. This proportion remains unchanged after 24 h. The fact that GO-203-induced apoptosis occurs rapidly in both sensitive and relatively insensitive cell lines is relevant in the context of its cytotoxic mechanism (discussed later in the text).
Also illustrated in Fig. 3G,H is the dose-dependent response of the treated cells. […] It is possible that apoptotic ZR-75-1 cells in quadrant II undergo disintegration instead of moving to quadrant III, Fig. 3D. Importantly, the Annexin V data are consistent with the results of the MTS assay which registers limited damage to the ZR-75-1 cells, see Fig. 2.
The adherent cells were rinsed with PBS, harvested using trypsin-EDTA solution and suspended in the growth medium. To analyze cell cycle phase distribution, 200 μg/ml of saponin (Fluka, USA), 250 μg/ml RNase A, and 50 μg/ml of propidium iodide (both Sigma-Aldrich, USA) were added to each sample tube, thus obtaining DNA stain buffer. After 1 h incubation at room temperature, the samples were analyzed by flow cytometry. To detect apoptosis by flow cytometry, CellEvent Caspase-3/7 Green Flow Cytometry Assay Kit (Thermo Fisher Scientific, USA) and Annexin-V FITC conjugate (BD Biosciences, USA) in combination with propidium iodide have been employed following the manufacturer’s protocols.
Cell fluorescence was measured using CytoFLEX (Beckman Coulter, USA) flow cytometer equipped with 3 lasers (405, 488 and 633 nm). Cells were gated on FSC/SSC to remove debris. Mean fluorescence intensity from 10,000 cells was acquired.

HT-1080 cells = assay: Time-lapse microscopy and side angle light scatter, HT-1080; type: cell-based, human
Experimental: The data from time-lapse microscopy on HT-1080 cells provide a visual evidence of GO-203-induced apoptosis, Fig. 5 (see also Film S1). […] After 1.5 h we observe the fully developed picture of apoptosis. This is illustrated in the right panel of Fig. 5: three cells in this photograph experience blebbing, while the fourth cell located in the upper right portion of the image has undergone detachment and rounded up (it is soon to enter the blebbing phase). This time line is confirmed by the side angle light scatter data from the flow-cytometry experiment, Fig. 6C. […] This behavior reflects the onset of dynamic blebbing and the concomitant increase in the roughness of the cell surface. In this context it is worth noting that actomyosin cortex contraction and blebbing are subsequent to (and in fact driven by) caspase activation. The condensation of nucleus and cytoplasm in apoptotic cells can also contribute to the increased side scatter.
Figure 5 Time-lapse microscopy of HT-1080 cells. (A) Cells before the addition of the peptide and (B) 1 h 20 min after the addition of 5 μM GO-203.
Figure 6 Dynamics of (A) mitochondrial membrane potential, (B) intracellular ROS levels, and (C) cell refractive properties in suspended HT-1080 cells following the addition of 5 μM GO-203.
The cells were seeded into 35-mm Nunc culture dishes (Thermo Scientific, USA) at 1.2 × 10^5 cells per dish and allowed to attach for 24 h. To monitor intracellular ROS in a time-dependent manner, the cells were incubated for 30 min with 10 μM of carboxy-H2DCFDA (Invitrogen, USA), then harvested with trypsin-EDTA and suspended in a fresh medium. After that GO-203 was added directly to the suspension and cell fluorescence was measured by flow cytometry at multiple time points during the following 2 hours. The same procedure was used for mitochondria-specific fluorescent dye Rhodamine 123 (Thermo Fisher Scientific, USA), which was added to a concentration of 5 μM. The complementary side scatter measurements were conducted using 488 nm laser light. In another series of experiments, we have used the related indicator of oxidative stress, H2DCFDA (Invitrogen, USA). The experiment started by adding GO-203 to the cell growth medium; then 10 min later 5 μM of H2DCFDA has been added. After 20 min incubations with H2DCFDA, the cells were harvested with trypsin-EDTA and suspended in a fresh medium. Cell fluorescence was then immediately measured by flow cytometry. The same procedure was followed for the ROS-insensitive (control) modification of the fluorescent probe, DCFDA.
For live cell microscopy, HT-1080 cells were seeded into 35-mm сell imaging dish with cover glass bottom (Eppendorf, Germany) and allowed to attach for 24 h. The cell response to 5 μM GO-203 exposure was monitored using the Axio Observer. […]

[1] = 10 μM, 4 h, representative plot Fig. 3D
[2] = 10 μM, 4 h after administration
[3] = HT-1080, 5 μM, time-lapse microscopy

[R]9CQCRRKN [GO-203, in clinical trials]
quadrant I fraction (Annexin V/PI dot plot) (ZR-75-1 cells; [1]): 37.84%
quadrant II fraction (Annexin V/PI dot plot) (ZR-75-1 cells; [1]): 45.32%
quadrant III fraction (Annexin V/PI dot plot) (ZR-75-1 cells; [1]): 8.65%
quadrant IV fraction (Annexin V/PI dot plot) (ZR-75-1 cells; [1]): 8.19%
early apoptosis (Annexin V/PI) (ZR-75-1 cells; [2]): 43%
late apoptosis stage (Annexin V/PI) (ZR-75-1 cells; [2]): 9%
healthy cells (Annexin V/PI) (ZR-75-1 cells; 10 μM, 4 h after administration (unchanged after 24 h)): 39%
viable cells at highest dose (Annexin V/PI) (ZR-75-1 cells; 20 μM): a large proportion of the cells remains viable
Time to fully developed picture of apoptosis (HT-1080 cells; [3]): 1.5 h
Time to morphological features of apoptosis (cell contraction, membrane blebbing) (HT-1080 cells; [3]): within the first hour
Time at which side angle light scatter starts to rise versus control (HT-1080 cells; suspended HT-1080 cells, 5 μM, flow cytometry, 488 nm): 30 min
Onset of apoptosis after application (HT-1080 cells; treated cells, summary statement): ca. 30 min
